{"source": "paper PMC10478803", "about": "“Contributions of the N-terminal flanking residues of an antigenic peptide from the Japanese cedar pollen allergen Cry j 1 to the T-cell activation by HLA-DP5” (International Immunology, 2023)", "molecules": {"B1": {"name": "TCR(SU3–3) (TCR)", "alpha TRAV8-3*01 TRAJ34*01 CDR3": "CAVAPTYNTDKLIF", "beta TRBV7-9*03 TRBJ2-2*01 CDR3": "CASSSKGGAGELFF"}, "B2": {"name": "TCR(NM-7) (TCR)", "alpha TRAV12-3*01 TRAJ27*01 CDR3": "CGANAGKSTF", "beta TRBV30*01 TRBJ2-7*01 CDR3": "CAWSVMVWGSEGEQYF"}, "B3": {"name": "TCR(NM-4) (TCR)", "alpha TRAV16*01 TRAJ48*01 CDR3": "CALRSNFGNEKLTF", "beta TRBV5-1*01 TRBJ2-2*01 CDR3": "CASSLVVAGVYTGELFF"}}, "key": {"[1]": {"system": "HLA-DP5 expressed on mDC1 cells", "assay": "Cell-surface peptide-display assay on HLA-DP5-expressing mDC1 cells", "conditions": "3.5 h at 37°C", "procedure": "(§3) The DPA1-stable cells were established by the transduction of mouse antigen-presenting dendritic cell line 1 (mDC1) cells with a retrovirus containing pMXs-Puro/DPA1 and selection with puromycin (5 μg ml^−1). The DPA1-stable cells were subsequently transduced with pMXs-IB/DPB1 and selected with blasticidin (5 μg ml^−1), to obtain DPA1- and DPB1-stable cells. […] The cell-surface expression levels of HLA-DP were analyzed with an EPICS-XL (Beckman Coulter) or BD FACSCalibur (BD Biosciences) flow cytometer. HLA-DP was stained with anti-HLA-DP (B7/21) (Leinco Technologies), and mouse IgG3 (6A3) (MBL), as the isotype control, was stained with phycoerythrin-conjugated anti-mouse IgG3 (Santa Cruz Biotechnology). mDC1 cells with certain uniform levels of HLA-DP5 expression were collected and used for the quantitative assays of cell-surface peptide-display and IL-2 production. […]\n(§4) The parent mDC1 cells without HLA-DP5 expression (HLA-DP5[−]), and the HLA-DP5-expressing mDC1 cells, HLA-DP5[WT], were diluted with DMEM to 1.0 × 10^6 cells ml^−1. […] Thereafter, the cells were stained with Hoechst 33342 (diluted 1: 1000, at 4°C) (Thermo Fisher Scientific), and analyzed by a flow cytometer (BD LSRFortessa X-20, BD Biosciences) for the fluorescent intensity in the whole cell (TAMRA, excited at 561 nm) and that on the cell surface (Alexa647, excited at 640 nm). […]"}, "CD4^+ T cells": {"system": "CD4^+ T cells", "assay": "CFSE assay of CD4^+ T-cell proliferation in PBMCs of HLA-DP5^+ CP patients", "assay_type": "cell-based, human", "conditions": "PBMCs from HLA-DP5^+ CP patients", "method": "Peripheral blood was obtained from HLA-DP5^+ CP patients. Peripheral blood mononuclear cells (PBMCs) were isolated by a density gradient technique, using Ficoll-Paque PLUS. The research protocol for collecting and using PBMCs from allergic patients was approved by the Institutional Review Board of Kyushu University.\nThe CFSE assay was performed as described previously ([24]). Briefly, PBMCs (1.0 × 10^7 cells ml^−1 in PBS) were incubated for 10 min with 5 μM CFSE (Molecular Probes). Staining was terminated by adding PBS containing 5% pooled human serum, and after the cells were washed three times in PBS containing 1% pooled human serum, they were resuspended in culture medium (RPMI-1640 containing 5% pooled human serum) at 2.0 × 10^6 cells ml^−1. Stained cells (2.0 × 10^6 cells well^−1, 1 ml) were cultured in 24-well plates with medium alone, pCj1 (final concentration, 10 μg ml^−1), or NF-pCj1 (10 μg ml^−1). After 7 days, the cells treated with each antigen were pooled, washed in PBS, and stained with anti-human CD4-allophycocyanin (IgG1, clone RPA-T4, BioLegend) and 7-amino-actinomycin D (7-AAD) (BD Pharmingen). Antigen-specific, viable CD4^+ T cells were identified as 7AAD^−, CD4^+, CFSE^dim cells, and the proliferation levels of these antigen-specific CD4^+ T cells were examined in each experiment."}, "[2]": {"system": "CD4^+ T-cell clones (SU3–2, SU3–3, NM-4, and NM-7)", "assay": "^3H-thymidine incorporation assay of T-cell clone proliferation", "assay_type": "cell-based, human", "conditions": "HLA-DP5-positive allogenic irradiated PBMCs as APCs", "method": "(§1) Cloning of CD4^+ T cells was performed as described previously ([23]). A single, viable (7AAD^–), CD4^+, CFSE^dim cell was sorted into each well of a 96-well plate, which contained 100 μl of culture medium with feeder cells and cytokines, as described below. Irradiated (30 Gy) peptide-pulsed PBMCs (1.0 × 10^5) isolated from unrelated DPB1*05:01^+ donors were used as feeder cells in the cloning plates. Pooled human serum (5%) and IL-2 (100 U ml^−1) (Peprotech) were added at the indicated final concentrations to AIM-V medium (Life Technologies). Cells were fed every 7 days with fresh cytokine and peptide-pulsed PBMCs. Growing clones were identified by visual inspection, expanded into […] plates, and then tested for antigen specificity by ^3H-thymidine incorporation and cytokine production assays, using HLA-DP5 transfected K562 cells as antigen-presenting cells (APCs). […]\nT-cell clones were tested for antigen specificity, using the ^3H-thymidine incorporation assay. […] The cells were then harvested and the incorporated radioactivity was measured by β-scintillation counting. […]\n(§2) Fig. 4. […] HLA-restriction of T-cell clones was determined by addingvarious monoclonal antibodies (mAbs): anti-HLA-DR mAb (L243, BioLegend), anti-HLA-DQ mAb (SPV-L3, Abcam) or anti-HLA-DP mAb (B7/21, Abcam), at a final concentration of 10 μg ml^−1. […]"}, "[3]": {"system": "CD4^+ T-cell clones (SU3–2, SU3–3, NM-4, and NM-7)", "assay": "Cytokine production by T-cell clones", "assay_type": "cell-based, human", "conditions": "HLA-DP5-transfected K562 cells as APCs, 24 h, Bio-Plex", "method": "as §1\nFig. 4. […] HLA-restriction of T-cell clones was determined by addingvarious monoclonal antibodies (mAbs): anti-HLA-DR mAb (L243, BioLegend), anti-HLA-DQ mAb (SPV-L3, Abcam) or anti-HLA-DP mAb (B7/21, Abcam), at a final concentration of 10 μg ml^−1. […] After 24 h, culture supernatants were collected and cytokine levels were measured using the Bio-Plex system (Bio-Rad). […] The T-cell surface activation marker CD137 of TCR(SU3–3)-TG40 and TCR(NM-4)-TG40 (GFP^+ 7AAD^− gated) was analyzed by flow cytometry. […]"}, "[4]": {"system": "TCR(SU3–2)-TG40, TCR(SU3–3)-TG40, TCR(NM-4)-TG40, and TCR(NM-7)-TG40 cells", "assay": "CD137^+ response of TCR-transfected TG40 cells", "assay_type": "cell-based, mouse", "conditions": "in the presence of HLA-DP5-expressing cells", "method": "as §1, with “(APCs). HLA-DP5-K562 cells were kindly provided by Dr H. Sugiyama, Osaka University. CD4^+ T-cell clones were stained with a PE-conjugated anti-human CD4 monoclonal antibody (mAb), and single cells were sorted into MicroAmp reaction tubes.” for “(APCs).”\nas §2"}, "[5]": {"system": "TCR(SU3–3)-TG40 and TCR(NM-4)-TG40 cells", "assay": "IL-2 production assay with HLA-DP5-expressing mDC1 cells", "conditions": "ELISA", "procedure": "The DPA1-stable cells were established by the transduction of mouse antigen-presenting dendritic cell line 1 (mDC1) cells with a retrovirus containing pMXs-Puro/DPA1 and selection with puromycin (5 μg ml^−1). The DPA1-stable cells were subsequently transduced with pMXs-IB/DPB1 and selected with blasticidin (5 μg ml^−1), to obtain DPA1- and DPB1-stable cells. […] The cell-surface expression levels of HLA-DP were analyzed with an EPICS-XL (Beckman Coulter) or BD FACSCalibur (BD Biosciences) flow cytometer. HLA-DP was stained with anti-HLA-DP (B7/21) (Leinco Technologies), and mouse IgG3 (6A3) (MBL), as the isotype control, was stained with phycoerythrin-conjugated anti-mouse IgG3 (Santa Cruz Biotechnology). mDC1 cells with certain uniform levels of HLA-DP5 expression were collected and used for the quantitative assays of cell-surface peptide-display and IL-2 production.\nHuman CD4^+ TG40 cells were infected with the recombinant retroviruses by using retronectin (Takara Bio), according to the manufacturer’s instructions.\nHLA-DP5-expressing mDC1 cells (5.0 × 10^3 cells per well) were cultured with NF-pCj1 for 3 h in 96-well flat-bottom plates.\nT-cell response to NF-pCj1 presented by mDC1s."}, "[6]": {"system": "mDC1 cells (mouse antigen-presenting dendritic cell line 1)", "assay": "Uptake of TAMRA-labeled NF-pCj1 into mDC1 cells", "conditions": "TAMRA MFI, 0.25–4 μM, 3.5 h at 37°C, flow cytometry", "procedure": "as §3, §4"}, "[7]": {"target": "NF-pCj1–HLA-DP5^ec (HLA-DP5α protein and NF-pCj1–HLA-DP5β fusion protein, extracellular regions) (human | Cryptomeria japonica) (UniProt P18632)", "assay": "SPR"}, "[8]": {"target": "pCj1–HLA-DP5^ec (extracellular regions of HLA-DP5 with the nine-residue core peptide pCj1 fused to the β chain) (human | Cryptomeria japonica) (UniProt P18632)", "assay": "SPR"}, "[9]": {"target": "T1, Cry j 1 (NF-pCj1, NF[WT]-pCj1) peptide on HLA-DPA1*02:02 / HLA-DPB1*05:01 (human)", "T1 peptide": "DKSMKVTVAFNQF", "assay": "Kd or kinetics"}, "[10]": {"target": "T1, Cry j 1 (NF-pCj1, NF[WT]-pCj1) peptide …", "assay": "cytokine release"}, "[11]": {"target": "T2, Cry j 1 (pCj1) peptide on HLA-DPA1*02:02 / HLA-DPB1*05:01 (human)", "T2 peptide": "KVTVAFNQF", "assay": "activation reporter or marker"}, "[12]": {"target": "T2, Cry j 1 (pCj1) peptide on …", "assay": "cytokine release"}}, "note": "“Also recorded” adds a separate entry of the source.", "data": [{"molecule": "DEEMKVTVAFNQF-GPN-EG2-TAMRA", "values": [{"measurement": "effect of NF mutations on amount of cell-surface displayed peptide (in words)", "setting": "[1]; 1 μM, same peptide dose and HLA-DP5 surface expression, Alexa647 MFI", "result": "halved the amounts of the cell-surface displayed peptide"}]}, {"molecule": "DKSMKVTVAFNQF [NF-pCj1]", "values": [{"measurement": "CD4^+ T-cell proliferation and clone establishment (in words)", "setting": "CD4^+ T cells", "result": "many CD4^+ T cells proliferating"}, {"measurement": "proliferative response of T-cell clones (in words)", "setting": "[2]", "result": "proliferated in response to NF-pCj1"}, {"measurement": "cytokine production on stimulation (in words)", "setting": "[3]", "result": "produced IL-5, IL-10, and IL-13"}, {"measurement": "response of TCR-transfected TG40 cells by CD137^+ cell number (in words)", "setting": "[4]", "result": "responded to NF-pCj1"}, {"measurement": "IL-2 production by TCR-TG40 cells (in words)", "setting": "[5]; HLA-DP5-expressing mDC1s pulsed 3 h, coculture 18 h, peptide 7 µg ml^−1 (Fig. 5A), 0.5–15 µg ml^−1 (Fig. 5B, C)", "result": "produced IL-2 in response to NF-pCj1"}]}, {"molecule": "DKSMKVTVAFNQF-GPN-EG2-TAMRA [NF-pCj1–TAMRA]", "values": [{"measurement": "uptake versus concentration in the medium (in words)", "setting": "[6]", "result": "proportional to its concentration in the medium"}, {"measurement": "amount of surface-displayed peptide per cell versus concentration (in words)", "setting": "[1]; Alexa 647-labeled anti-TAMRA antibody MFI, 0.25–4 μM", "result": "nearly proportional to the peptide concentration in the range of 0.25–4 μM"}]}, {"molecule": "KVTVAFNQF [pCj1]", "values": [{"measurement": "CD4^+ T-cell proliferation and clone establishment (in words)", "setting": "CD4^+ T cells", "result": "some proliferation; also recorded: it was impossible to maintain the cell growth required to establish HLA-DP5-restricted CD4^+ T-cell clones"}]}, {"molecule": "NF[S(P–2)E/K(P–3)E]-pCj1: double mutation of Ser(–2) and Lys(–3) to Glu in a 13-residue Cry j 1 peptide (NF-pCj1) (DEEMKVTVAFNQF)", "values": [{"measurement": "effect of NF mutation on T-cell activation / IL-2 production (in words)", "setting": "[5]; vs WT NF-pCj1, HLA-DP5-mDC1s, 18 h", "result": "dramatically reduced"}]}, {"molecule": "TCR(SU3–3)^ec αβ molecule (extracellular regions of the TCR(SU3–3) α chain, residues 1–209, and β chain, residues 1–245, with an artificial interchain disulfide bond) (from UniProt A0A0A6YYJ7)", "values": [{"measurement": "Kd", "setting": "[7]", "result": 92.5, "unit": "µM"}, {"measurement": "Kd", "setting": "[8]", "result": 90.1, "unit": "µM"}]}, {"molecule": "B1", "values": [{"measurement": "binding result", "setting": "[9]", "result": "recognises"}]}, {"molecule": "B2", "values": [{"measurement": "binding result", "setting": "[10]", "result": "recognises"}, {"measurement": "binding result", "setting": "[11]", "result": "no recognition"}]}, {"molecule": "B3", "values": [{"measurement": "binding result", "setting": "[10]", "result": "recognises"}, {"measurement": "binding result", "setting": "[12]", "result": "no recognition"}]}]}
